Assay results: article PMC6371206 (ACS Pharmacology & Translational Science, 2019)
Read-outs that look alike come from different tables or passages of the source.

Assays:
hD2R = experiment: Pairwise bias factor calculation; format: cell-based, human; details: for Go-protein bias over β-arrestin: bias expressed as fold; for Bias factor GoA−βarrestin / Bias factor Gi1–GoA activation / Bias factor cAMP−βarrestin: logarithmic scale, relative to quinpirole, 30 min data; for Bias factor Gi1–GoA activation: negative = GoA bias
[1] = target: hD2R (D2SR), Gi1 activation (Homo sapiens, UniProt P14416); experiment: cell-based; format: cell-based; details: for Emax: HEK293, read-out: Gi1 Activation Emax; for Gi1 Activation Emax: 30 min, normalized to quinpirole Emax; for Gi1 Activation Emax / EC50: hD2R in HEK293 cells; for EC50: Gi1 Activation EC50, 30 min
[2] = target: hD2R (D2SR), GoA activation (Homo sapiens, UniProt P14416); experiment: cell-based; details: for EC50: GoA Activation EC50, 30 min, hD2R in HEK293 cells; for Emax: HEK293, read-out: GoA Activation Emax
[3] = target: hD2R (D2SR), cAMP inhibition (Homo sapiens, UniProt P14416); experiment: cell-based; details: for Emax: HEK293, read-out: cAMP Inhibition Emax; for EC50: cAMP Inhibition EC50, 30 min, hD2R in HEK293 cells
[4] = target: hD2R (D2SR), β-arrestin 2 recruitment (Homo sapiens, UniProt P14416); experiment: cell-based; format: cell-based; details: for Emax: HEK293, read-out: βArrestin2 Recruitment Emax
[5] = system: D2R-expressing dopaminergic neurons in VTA and SNc (GIRK activity); format: cell-based, mouse

hD2R (D2SR), cAMP inhibition, sequence (P14416 1-414 isoform P14416-2): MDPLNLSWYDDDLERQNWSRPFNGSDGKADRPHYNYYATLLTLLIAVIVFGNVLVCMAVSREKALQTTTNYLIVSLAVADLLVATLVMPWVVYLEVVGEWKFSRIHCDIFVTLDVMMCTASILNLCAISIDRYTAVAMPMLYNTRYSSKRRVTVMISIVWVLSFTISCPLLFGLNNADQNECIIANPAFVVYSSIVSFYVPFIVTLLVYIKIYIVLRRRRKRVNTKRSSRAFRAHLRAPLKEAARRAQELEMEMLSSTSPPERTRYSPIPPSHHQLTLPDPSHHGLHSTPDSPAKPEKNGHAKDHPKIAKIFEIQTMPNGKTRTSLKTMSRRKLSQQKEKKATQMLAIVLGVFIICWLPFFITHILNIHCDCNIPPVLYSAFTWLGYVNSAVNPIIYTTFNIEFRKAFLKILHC
hD2R (D2SR), Gi1 activation, sequence (P14416 1-414 isoform P14416-2): as above
hD2R (D2SR), Gi1 activation, sequence (P63096 2-354 partner limits assumed): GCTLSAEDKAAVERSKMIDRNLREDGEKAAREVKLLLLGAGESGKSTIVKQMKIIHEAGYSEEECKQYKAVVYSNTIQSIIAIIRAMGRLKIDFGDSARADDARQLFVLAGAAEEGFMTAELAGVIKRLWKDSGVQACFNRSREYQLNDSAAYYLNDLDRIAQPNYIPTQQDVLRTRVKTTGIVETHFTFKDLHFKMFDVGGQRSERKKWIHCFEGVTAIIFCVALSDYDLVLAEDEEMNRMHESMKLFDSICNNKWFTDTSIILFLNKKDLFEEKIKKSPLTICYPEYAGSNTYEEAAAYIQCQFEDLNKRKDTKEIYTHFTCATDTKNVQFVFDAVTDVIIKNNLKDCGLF
hD2R (D2SR), Gi1 activation, sequence (P62873 2-340 partner limits assumed): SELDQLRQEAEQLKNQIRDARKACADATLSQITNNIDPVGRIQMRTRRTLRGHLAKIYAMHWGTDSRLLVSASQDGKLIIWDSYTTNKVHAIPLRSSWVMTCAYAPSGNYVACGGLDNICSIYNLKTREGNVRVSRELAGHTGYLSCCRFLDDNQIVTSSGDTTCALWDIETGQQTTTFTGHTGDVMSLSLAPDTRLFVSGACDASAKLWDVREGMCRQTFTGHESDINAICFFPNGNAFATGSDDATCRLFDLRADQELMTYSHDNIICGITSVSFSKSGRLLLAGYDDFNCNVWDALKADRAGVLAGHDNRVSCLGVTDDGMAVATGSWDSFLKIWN
hD2R (D2SR), Gi1 activation, sequence (P59768 2-68 partner limits assumed): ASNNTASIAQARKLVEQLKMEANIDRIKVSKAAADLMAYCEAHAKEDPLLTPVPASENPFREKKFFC
hD2R (D2SR), GoA activation, sequence (P14416 1-414 isoform P14416-2): as the sequence (P14416 1-414 isoform P14416-2) above
hD2R (D2SR), GoA activation, sequence (P09471 2-354 partner limits assumed): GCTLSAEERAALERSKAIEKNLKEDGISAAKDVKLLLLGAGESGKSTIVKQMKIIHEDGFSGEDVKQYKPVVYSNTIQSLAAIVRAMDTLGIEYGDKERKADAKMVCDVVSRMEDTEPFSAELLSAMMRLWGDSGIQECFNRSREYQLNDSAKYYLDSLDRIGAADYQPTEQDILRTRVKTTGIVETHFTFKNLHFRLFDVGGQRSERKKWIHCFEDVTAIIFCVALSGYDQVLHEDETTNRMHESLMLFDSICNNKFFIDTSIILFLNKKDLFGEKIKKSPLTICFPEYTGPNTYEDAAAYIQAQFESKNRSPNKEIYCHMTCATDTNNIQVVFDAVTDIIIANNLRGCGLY
hD2R (D2SR), GoA activation, sequence (P62873 2-340 partner limits assumed): as the sequence (P62873 2-340 partner limits assumed) above
hD2R (D2SR), GoA activation, sequence (P59768 2-68 partner limits assumed): as the sequence (P59768 2-68 partner limits assumed) above
hD2R (D2SR), β-arrestin 2 recruitment, sequence (P14416 1-414 isoform P14416-2): as the sequence (P14416 1-414 isoform P14416-2) above
hD2R (D2SR), β-arrestin 2 recruitment, sequence (P32121 whole entry partner): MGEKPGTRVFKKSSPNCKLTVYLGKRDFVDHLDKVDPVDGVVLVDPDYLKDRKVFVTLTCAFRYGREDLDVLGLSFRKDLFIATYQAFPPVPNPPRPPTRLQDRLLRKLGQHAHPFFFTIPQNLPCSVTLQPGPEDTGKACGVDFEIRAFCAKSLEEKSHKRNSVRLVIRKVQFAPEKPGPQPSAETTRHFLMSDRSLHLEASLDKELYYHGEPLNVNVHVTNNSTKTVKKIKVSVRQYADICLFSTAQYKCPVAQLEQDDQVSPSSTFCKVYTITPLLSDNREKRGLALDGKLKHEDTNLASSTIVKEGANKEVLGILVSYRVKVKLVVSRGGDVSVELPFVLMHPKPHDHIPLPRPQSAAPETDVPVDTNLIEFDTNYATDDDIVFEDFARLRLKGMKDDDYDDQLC

Row | SMILES | Go-protein bias over β-arrestin (hD2R) [fold] | Bias factor GoA−βarrestin (hD2R) | Bias factor Gi1–GoA activation (hD2R) | Emax [1] [%] | EC50 [2] [nM] | Emax [2] [%] | Emax [3] [%] | EC50 [3] [nM] | Gi1 Activation Emax [1] | EC50 [1] [nM] | βArrestin2 Recruitment Emax ([4]; 30 min, hD2R in HEK293 cells, normalized to quinpirole Emax) | Bias factor cAMP−βarrestin (hD2R) | EC50 [4] [nM] | Emax [4] [%] | ligand-induced change of holding current ([5]; whole cell voltage-clamp, −60 mV, 3 and 30 μM) | ligand-induced change of holding current [5] | effect of D2R antagonist on agonist-induced holding current change [5]
1 | CN(CCCCNC(=O)c1cc2ccccc2[nH]1)[C@@H]1Cc2cccc3[nH]c(=O)n(c23)C1 [Compound 1] | ~30 | 1.51 | –0.98 | 51 ± 4.4 |  |  |  |  |  |  |  |  |  |  |  |  | 
2 | CC1Cc2ccccc2N1C(=O)c1nc2ccccc2s1 (stereo not shown) [Compound 2, reference compound] |  |  |  | 8.1 ± 8.2 | 61.1 ± 48.8 | 31.9 ± 7 | 58.5 ± 30.2 | 22.9 ± 19 | low efficacy | 39.7 ± 39.7 | low efficacy |  |  |  |  |  | 
3 | CN(CCCCNC(=O)c1ccc2scnc2c1)[C@@H]1Cc2cccc3[nH]c(=O)n(c23)C1 [Compound 8] |  | 1.21 | –0.44 | 108 ± 7.3 | 7.3 ± 3.6 | 92.1 ± 7.2 | 95.4 ± 4.7 | 5.2 ± 1.8 | fully efficacious | 144 ± 52.6 |  | 1.05 | 208 ± 173 | 76.4 ± 20.1 |  |  | 
4 | CN(CCCCNC(=O)c1nc2ccccc2s1)[C@@H]1Cc2cccc3[nH]c(=O)n(c23)C1 [Compound 9] |  | 0.55 | 0.43 | 85.1 ± 8.6 | 117 ± 59 | 75.5 ± 7.8 | 84 ± 6.2 | 79.1 ± 31.7 |  | 301 ± 147 |  | 0.56 | 794 ± 711 | 64.2 ± 25.6 |  |  | 
5 | CN(C[C@@H]1C[C@H]1CCNC(=O)c1cc2ccccc2[nH]1)[C@@H]1Cc2cccc3[nH]c(=O)n(c23)C1 [Compound 19] | > 1000 | 3.44 |  | 57.6 ± 4.9 | 1 ± 0.5 | 74 ± 5.4 | 60.5 ± 1.5 | 6 ± 1.1 |  | 129 ± 56.3 |  | 1.93 | 80.5 ± 35.7 | 30.5 ± 2.6 |  |  | 
6 | CN(CC[C@@H]1C[C@H]1CNC(=O)c1cc2ccccc2[nH]1)[C@@H]1Cc2cccc3[nH]c(=O)n(c23)C1 [Compound 20] | > 1000 | 2.50 | 0.24 | 72.4 ± 4.6 | 103 ± 28.2 | 80.3 ± 3.8 | 59.8 ± 1.5 | 81.1 ± 13.1 |  | 184 ± 63.6 |  | 1.39 | 208 ± 85.8 | 26 ± 2.1 |  |  | 
7 | CN[C@@H]1Cc2cccc3[nH]c(=O)n(c23)C1 [Sumanirole, (R)-5,6-dihydro-5-(methylamino)-4H-imidazo[4,5,1-ij]quinolin-2(1H)-one, reference compound] |  | 0.15 | –0.54 |  |  |  |  |  |  |  |  | –0.10 |  |  | produced an increase in the holding current |  | 
8 | NCCc1ccc(O)c(O)c1 [dopamine] |  |  |  |  |  |  |  |  |  |  |  |  |  |  |  | produced an increase in the holding current | 
9 | CCN1CCCC1CNC(=O)c1cc(S(N)(=O)=O)ccc1OC (stereo not shown) [sulpiride] |  |  |  |  |  |  |  |  |  |  |  |  |  |  |  |  | inhibited the change in the holding current induced by either sumanirole or 11
